Results: patent US12472182B2, “Compositions comprising regulatory t cells and methods of making and using the same” (Cellenkos, Inc., priority 2019, dated 2025)

Columns and labels:
[1] = tested on: interferon (IFN)-gamma released by SLE-PBMC; test: IFN-gamma release by pathogenic lupus cells; type: cell-based, human; details: control, non-specific inflammatory stimulus
Source text: FIG. 32 is a bar graph depicting the amount of interferon (IFN)-gamma released by pathogenic lupus cells in the presence or absence of combinations of (1) activated Treg cells; (2) ruxolitinib; and/or (3) camptothecin. Rux=ruxolitinib. SLE-PBMC=peripheral blood mononuclear cells derived from subjects with systemic lupus erythematosus. D6=Day 6.

[2] = tested on: xenogeneic mouse graft versus host disease (GVHD) model; details: in vivo
Protocol: FIG. 33 depicts a schematic for treatment of a xenogeneic mouse graft versus host disease (GVHD) model with a ruxolitinib and activated Treg cells regimen. PBMC=peripheral blood mononuclear cells.
A xenogeneic mouse graft versus host disease (GVHD) model was treated with a ruxolitinib and activated CB Treg cells regimen, as depicted in FIG. 33. NSG mice underwent sublethal irradiation on day −1 followed by injection of 1×10^7 donor peripheral blood (PB) mononuclear cells (MNCs) on day 0. Oral ruxolitinib at 1 mg daily was fed continuously to the mice in the presence or absence of 1×10^7 CB Treg cells, tagged with CellTrace™ Violet dye (ThermoFisher), administered on days +4, +7, +11, +18. Mice were followed every other day for weight, GVHD score and survival. Serial blood draws were performed to analyze for cell compartment and cytokine assays.

SMILES | IFNγ secretion from CB Treg cells [1] | CB Treg persistence [2]
CC[C@@]1(O)C(=O)OCc2c1cc1n(c2=O)Cc2cc3ccccc3nc2-1 [Camptothecin] | does not increase IFNγ secretion | –
N#CC[C@H](C1CCCC1)n1cc(-c2ncnc3[nH]ccc23)cn1 [ruxolitinib] | – | improved CB Treg persistence
